Experimental data reported in patent US20200317639A1, “POLYMORPHS OF N-[(2,6-DIFLUORO-3-METHOXYPHENYL)METHYL]-3-(METHOXYMETHYL)-1-({4-[(2-OXOPYRIDIN-1YL)METHYL]PHENYL}METHYL)PYRAZOLE-4-CARBOXAMIDE” (KALVISTA PHARMACEUTICALS LIMITED, priority 2016, published 2020).

Experiments:
[1] = Pharmacokinetic study, single oral dose in rats; type: in vivo; settings: male, Sprague-Dawley; rat, po 11.3 mg/kg, vehicle 10% DMSO/10% cremophor/80% SWFI, plasma
Procedure: A pharmacokinetic study of N-[(2,6-difluoro-3-methoxyphenyl)methyl]-3-(methoxymethyl)-1-({4-[(2-oxopyridin-1-yl)methyl]phenyl}methyl)pyrazole-4-carboxamide was performed to assess the pharmacokinetics following a single oral dose in male Sprague-Dawley rats. Two rats were given a single po dose of 5 mL/kg of a nominal 2 mg/mL (10 mg/kg) composition of test compound in vehicle. Following dosing, blood samples were collected over a period of 24 hours. Sample times were 5, 15 and 30 minutes then 1, 2, 4, 6, 8 and 12 hours. Following collection, blood samples were centrifuged and the plasma fraction analysed for concentration of test compound by LCMS.

Human plasma kallikrein = target: T1, Human plasma kallikrein (Homo sapiens, UniProt P03952); experiment: Determination of the IC50 for plasma kallikrein; type: biochemical; settings: 25° C., substrate H-DPro-Phe-Arg-AFC; read-out: IC50 (human PKaI)
T1 construct: purchased Protogen
T1 sequence (P03952 391-638 limits assumed): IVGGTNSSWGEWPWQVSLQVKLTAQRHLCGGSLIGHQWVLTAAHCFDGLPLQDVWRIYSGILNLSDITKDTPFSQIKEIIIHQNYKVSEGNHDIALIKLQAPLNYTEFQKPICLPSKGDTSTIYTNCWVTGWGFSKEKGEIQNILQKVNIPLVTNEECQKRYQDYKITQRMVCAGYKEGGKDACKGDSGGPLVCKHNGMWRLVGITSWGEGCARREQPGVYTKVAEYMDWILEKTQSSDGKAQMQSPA
T1 sequence (P03952 20-390 partner limits assumed): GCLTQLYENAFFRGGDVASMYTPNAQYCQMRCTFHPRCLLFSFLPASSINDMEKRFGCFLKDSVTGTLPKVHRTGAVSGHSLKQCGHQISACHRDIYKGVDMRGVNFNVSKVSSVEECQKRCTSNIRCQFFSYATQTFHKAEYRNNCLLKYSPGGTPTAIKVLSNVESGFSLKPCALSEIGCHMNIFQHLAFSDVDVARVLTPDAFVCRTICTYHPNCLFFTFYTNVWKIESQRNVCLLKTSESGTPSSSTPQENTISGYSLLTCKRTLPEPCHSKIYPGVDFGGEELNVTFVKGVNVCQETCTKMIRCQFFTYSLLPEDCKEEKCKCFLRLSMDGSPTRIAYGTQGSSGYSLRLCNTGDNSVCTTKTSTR
Procedure: Determination of the IC50 for Plasma Kallikrein
(§1) Plasma kallikrein inhibitory activity in vitro was determined using standard published methods (see e.g. Johansen et al., Int. J. Tiss. Reac. 1986, 8, 185; Shori et al., Biochem. Pharmacol., 1992, 43, 1209; Stürzebecher et al., Biol. Chem. Hoppe-Seyler, 1992, 373, 1025). Human plasma kallikrein (Protogen) was incubated at 25° C. with the fluorogenic substrate H-DPro-Phe-Arg-AFC and various concentrations of the test compound. Residual enzyme activity (initial rate of reaction) was determined by measuring the change in […] at 410 nm and the IC50 value for the test compound was determined.

Human FXIa = target: T2, Human FXIa (Homo sapiens, UniProt P03951); experiment: Determination of the % inhibition for FXIa; type: biochemical; settings: 40 μM test compound, 25° C.
T2 construct: purchased Enzyme Research Laboratories
T2 sequence (P03951 388-625 limits assumed): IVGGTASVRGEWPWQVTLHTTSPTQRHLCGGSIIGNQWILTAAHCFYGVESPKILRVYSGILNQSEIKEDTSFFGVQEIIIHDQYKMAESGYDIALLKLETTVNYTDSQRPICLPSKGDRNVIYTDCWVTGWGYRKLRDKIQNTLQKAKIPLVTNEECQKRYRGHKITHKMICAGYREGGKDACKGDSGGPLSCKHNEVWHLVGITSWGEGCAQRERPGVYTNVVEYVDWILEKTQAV
T2 sequence (P03951 19-387 partner limits assumed): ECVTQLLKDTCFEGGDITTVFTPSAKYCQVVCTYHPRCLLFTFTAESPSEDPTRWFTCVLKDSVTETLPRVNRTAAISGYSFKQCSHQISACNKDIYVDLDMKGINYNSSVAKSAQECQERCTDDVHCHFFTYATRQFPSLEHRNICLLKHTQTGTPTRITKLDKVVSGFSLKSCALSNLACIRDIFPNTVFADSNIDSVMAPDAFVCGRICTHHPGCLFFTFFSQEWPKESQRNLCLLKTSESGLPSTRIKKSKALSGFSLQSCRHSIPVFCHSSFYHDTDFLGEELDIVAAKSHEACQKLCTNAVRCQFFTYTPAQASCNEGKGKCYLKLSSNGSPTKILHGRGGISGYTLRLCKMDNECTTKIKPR
Procedure: Determination of the % Inhibition for FXIa
as §1, with “FXIa” for “Plasma kallikrein”, “FXIa (Enzyme Research Laboratories)” for “plasma kallikrein (Protogen)”, “Z-Gly-Pro-Arg-AFC” for “H-DPro-Phe-Arg-AFC”, “40 μM” for “various concentrations”, “nm.” for “nm and the IC50 value for the test compound was determined.”

Human KLK1 = target: T3, Human KLK1 (Homo sapiens, UniProt P06870); experiment: Determination of the IC50 for KLK1; type: biochemical; settings: 25° C., substrate H-DVaI-Leu-Arg-AFC
T3 construct: purchased Callbiochem
T3 sequence (P06870 25-262): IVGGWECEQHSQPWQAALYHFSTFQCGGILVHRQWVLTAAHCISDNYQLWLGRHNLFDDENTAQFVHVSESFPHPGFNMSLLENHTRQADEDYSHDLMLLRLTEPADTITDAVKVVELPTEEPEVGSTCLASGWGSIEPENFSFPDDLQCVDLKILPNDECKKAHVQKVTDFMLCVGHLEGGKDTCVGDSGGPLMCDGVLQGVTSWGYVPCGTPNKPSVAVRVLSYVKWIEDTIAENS
Procedure: Determination of the IC50 for KLK1
as §1, with “KLK1” for “Plasma kallikrein”, “KLK1 (Callbiochem)” for “plasma kallikrein (Protogen)”, “H-DVaI-Leu-Arg-AFC” for “H-DPro-Phe-Arg-AFC”

[2] = tested on: LPS-induced disseminated intravascular coagulation; settings: cited from earlier work
[3] = in vivo; cited from earlier work
[4] = tested on: intrinsic pathway of coagulation; settings: in vitro; cited from earlier work
blood = settings: contacting blood with the substance; cited from earlier work

COCc1nn(Cc2ccc(Cn3ccccc3=O)cc2)cc1C(=O)NCc1c(F)ccc(OC)c1F [N-[(2,6-difluoro-3-methoxyphenyl)methyl]-3-(methoxymethyl)-1-({4-[(2-oxopyridin-1-yl)methyl]phenyl}methyl)pyrazole-4-carboxamide]
Cmax [1]: 2890 ng/mL | Tmax [1]: 1 h | IC50 (Human plasma kallikrein): 4.5 nM | inhibition at 40 µM (Human FXIa): 4% | IC50 (Human KLK1): > 10000 nM

Cl.NCC1CCC(C(=O)N[C@@H](Cc2ccccc2)C(=O)Nc2ccc(CC(=O)O)cc2)CC1 (stereo partly drawn) [PKSI-527]
Decrease in platelet count and fibrinogen level and increase in FDP level [2]: significantly suppressed

Ecallantide
Anaphylactic reactions [3]: risks of anaphylactic reactions | Contact activated induced coagulation [4]: delay contact activated induced coagulation | Activated clotting time (ACT) (blood): increase in activated clotting time
